Assay results: patent US8603527B2, “Pharmaceutical formulations of a substituted diaminopurine” (Signal Pharmaceuticals, LLC, priority 2010, dated 2013)

Assay: clinical
Conditions: human, in vivo, 100 mg; for AUC(0-t): AUC0-t; for Vd/F: Vz/F
From the text: Methods: This was an open-label study conducted at a single study center in conformance with good clinical practice (GCP). Thirty-six eligible healthy male and female subjects were enrolled and distributed into 3 groups as follows:
Group 1—A total of 12 females between 18 to 55 years of age, inclusive (±5 years age-matched and ±10% weight-matched to subjects in Group 2).
Group 2—A total of 12 males between 18 to 55 years of age, inclusive (±5 years age-matched and ±10% weight-matched to subjects in Group 1).
Group 3—A total of 12 males and females between 65 and 85 years of age, inclusive (weight and gender-matched to subjects in Groups 1 and 2), with a minimum of 3 subjects of each gender. Seven of the subjects in Group 3 were age 70 or above, with 2 of those subjects being >75 years of age.
Group 1 (Healthy Females) and Group 3 (Elderly Males and Females): Subjects were screened within 21 days of dosing and eligible subjects were admitted to the study center on Day −1 (i.e., at least 12 hours predose) for baseline assessments and confirmation of eligibility. A single oral dose of 100 mg Compound I was administered on Day 1 following an overnight fast of at least 8 hours. Subjects were discharged from the study center the morning of Day 3 upon completion of study procedures and returned to the study center for PK blood draws and safety assessments on Days 4, 5, and 6. The end-of-study (EOS) evaluation also occurred on Day 6. Subjects returned to the study center for a follow-up visit between 7 and 10 days from EOS. Serial blood samples were collected predose and up to 120 hours postdose for the determination of plasma Compound I concentrations. Safety was monitored throughout the study; safety evaluations included AE reporting, physical examinations, vital sign measurements, ECGs, and clinical laboratory safety tests. All AEs and concomitant medications were assessed and recorded throughout the study from the time the ICF was signed through follow-up.
Group 2 (Healthy Males): Subjects in Group 2 participated in this portion of the study to evaluate food effect using a randomized, open-label, single dose, 2-period (Period 1 and Period 2), 2-sequence, 2-way crossover design. Subjects were screened within 21 days of dosing and eligible subjects were admitted to the study center on Day −1 (i.e., at least 12 hours predose) for baseline assessments and confirmation of eligibility. On Day 1 of Period 1, following an overnight fast of at least 8 hours, subjects were randomized to receive 100 mg Compound I either with or without food (6 subjects received Compound I with food and 6 subjects received Compound I without food) according to a random code. Subjects were discharged from the study center the morning of Day 3 upon completion of study procedures and returned to the study center for PK blood draws and safety assessments on Days 4, 5, and 6.
Following an interdose interval of 10 to 15 days (i.e., at least 10 days and no more than 15 days from the dosing day (Day 1) of Period 1 to Day 1 of Period 2), subjects were re-admitted to the study center on Day −1 of Period 2 (i.e., at least 12 hours predose) for baseline assessments and reconfirmation of eligibility. On Day 1 of Period 2, assigned treatment was switched. Subjects who received Compound I with food in Period 1 received Compound I without food in Period 2 and subjects who received Compound I without food in Period 1 received Compound I with food in Period 2. Subjects were discharged from the study center the morning of Day 3 upon completion of study procedures and returned to the study center for PK blood draws and safety assessments on Days 4, 5, and 6. Day 6 of Period 2 also served as the EOS evaluation. Subjects returned to the study center for a follow-up visit between 7 and 10 days from EOS. In each study period, serial blood samples were collected predose and up to 120 hours postdose for the determination of plasma Compound I concentrations. […]

With `O[C@H]1CC[C@H](Nc2ncc3nc(Nc4c(F)cc(F)cc4F)n([C@H]4CCOC4)c3n2)CC1` [Compound I, 4-((9-((3S)-tetrahydro-3-furanyl)-8-((2,4,6-trifluorophenyl)amino)-9H-purin-2-yl)amino)-trans-cyclohexanol] the AUC(0-t) (both sexes, po, Geometric Mean) was 13500 ng·h/mL, the AUC(0-t) (both sexes, po, Geometric Means) was 13500 ng·h/mL and the AUC(0-inf) (both sexes, po, AUC0-∞ (geometric mean)) was 14400 ng·h/mL. The AUC(0-inf) (both sexes, po, AUC0-∞, Geometric Mean) was 14400 ng·h/mL, the AUC(0-inf) (both sexes, po, AUC0-∞, Geometric Means) was 14300 ng·h/mL and the AUC (both sexes, po, AUCO-inf) was 14800 ng·h/mL. It also gave an AUC (both sexes, po, AUCO-t) of 14200 ng·h/mL, a Cmax (both sexes, po, Cmax) of 742 ng/mL and a Cmax (both sexes, po, Cmax (geometric mean)) of 649 ng/mL. It also gave a Cmax (both sexes, po, Cmax, Geometric Mean) of 602 ng/mL, a Cmax (both sexes, po, Cmax, Geometric Means) of 654 ng/mL and a half-life (both sexes, po, T1/2) of 24.5 h. The Tmax (both sexes, po, Tmax) was 1.97 h, the Tmax (both sexes, po, Tmax, Median) was 2 h and the Vd/F (both sexes, po) was 250 L. The half-life (both sexes, po, mean t1/2) was 23 to 34 h, the Tmax (both sexes, po, median Tmax) was 1 to 2 h and the half-life (both sexes, po, t1/2, Geometric Mean) was 27.9 h. For the same compound, the “90% CI for the ratio (elderly/young) of geometric means, AUC0-t” value (both) was 86.7, 119.1, the “90% CI for the ratio (elderly/young) of geometric means, AUC0-∞” value (both) was 84.0, 117.3 and the “90% CI for the ratio (elderly/young) of geometric means, Cmax” value (both) was 82.0, 143.8. The “90% CI for the ratio (female/male) of geometric means, AUC0-t” value (both) was 81.7, 112.1, the “90% CI for the ratio (female/male) of geometric means, AUC0-∞” value (both) was 79.7, 111.4 and the “90% CI for the ratio (female/male) of geometric means, Cmax” value (both) was 72.3, 126.7. The “AUC0-t, Geometric Mean” value (both, po) was 13679.40 ng·h/mL, the “AUC0-t, Geometric Means” value (both, po) was 13722.1 ng·h/mL and the “AUC0-∞ (geometric mean)” value (both, po) was 14239.14 ng·h/mL. For the same compound, the “AUC0-∞, Geometric Mean” value (both, po) was 14239.14 ng·h/mL, the “AUC0-∞, Geometric Means” value (both, po) was 14398.3 ng·h/mL and the “Cmax, Geometric Means” value (both, po) was 602.0 ng/mL. For the same compound, the “Tmax, Median” value (both, po) was 1.75 h, the “median Tmax” value (both, po) was “approximately 1.5 hours” and the “t1/2, Geometric Mean” value (both, po) was 23.61 h. It also gave an AUC(0-t) (female, po, Geometric Mean) of 13100 ng·h/mL, an AUC(0-t) (female, po, Geometric Means) of 13300 ng·h/mL and an AUC(0-inf) (female, po, AUC0-∞) of 13700 ng·h/mL. For the same compound, the AUC(0-inf) (female, po, AUC0-∞, Geometric Mean) was 13700 ng·h/mL, the AUC(0-inf) (female, po, AUC0-∞, Geometric Means) was 13900 ng·h/mL and the AUC (female, po, AUCO-inf) was 13300 ng·h/mL. The AUC (female, po, AUCO-t) was 12700 ng·h/mL, the Cmax (female, po, Cmax) was 587 ng/mL and the Cmax (female, po, Cmax, Geometric Mean) was 587 ng/mL. It also gave a Cmax (female, po, Cmax, Geometric Means) of 614 ng/mL, a half-life (female, po, T1/2) of 24.4 h and a Tmax (female, po, Tmax) of 2.19 h. The Tmax (female, po, Tmax, Median) was 2.06 h, the Vd/F (female, po) was 265 L and the Tmax (female, po, median Tmax) was 2 h. The half-life (female, po, t1/2, Geometric Mean) was 24.6 h, the “90% CI of the median difference (elderly-young), Tmax” value was −0.5, 0.5 and the “90% CI of the median difference (fed-fast), Tmax” value was 2.00, 3.00. For the same compound, the “90% CI of the median difference (female-male), Tmax” value was 0.00, 1.00, the “90% CI for the ratio (fed/fast) of geometric means, AUC0-t” value (male) was 97.3, 108.1 and the “90% CI for the ratio (fed/fast) of geometric means, AUC0-∞” value (male) was 98.5, 109.4. The “90% CI for the ratio (fed/fast) of geometric means, Cmax” value (male) was 71.6, 105.3, the Tmax (male) was 1.00 h and the AUC(0-t) (male) was 14400 ng·h/mL. The AUC(0-inf) (male, AUC0-∞) was 15600 ng·h/mL, the Cmax (male, Cmax) was 658 ng/mL and the half-life (male, t1/2) was 32 h. The “median Tmax” value (male, po) was 1 h, the AUC(0-t) (male, po, Geometric Mean) was 14000 ng·h/mL and the AUC(0-inf) (male, po, AUC0-∞) was 15000 ng·h/mL. It also gave an AUC(0-inf) (male, po, AUC0-∞ (geometric mean)) of 16200 ng·h/mL, an AUC(0-inf) (male, po, AUC0-∞, Geometric Mean) of 15000 ng·h/mL and an AUC (male, po, AUCO-inf) of 16000 ng·h/mL. The AUC (male, po, AUCO-t) was 14700 ng·h/mL, the Cmax (male, po, Cmax) was 646 ng/mL and the Cmax (male, po, Cmax (geometric mean)) was 572 ng/mL. The Cmax (male, po, Cmax, Geometric Mean) was 646 ng/mL, the half-life (male, po, T1/2) was 33 h and the Vd/F (male, po) was 308 L. For the same compound, the half-life (male, po, t1/2, Geometric Mean) was 28.1 h.
